Measurements published in ChEMBL document CHEMBL1201862, “PubChem BioAssay data set” (2004).
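Where inhibition never reached the appropriate level, the endpoint shown equals the highest concentration tested. Otherwise, values were interpolated linearly from a five-concentration, 48-hour dose response in 96-well plates. The concentration for 50% growth inhibition is given as GI50.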 Active and inactive are the calls of the source. No stated cut-off is given here; in the data, active = GI50 up to about 1.1 µM and inactive = higher.

What was measured:
Assay in all cases: NCI anticancer screen, dose series, 48 h
IGROV-1 = test system: IGROV-1
RPMI-8226 = test system: RPMI-8226
NCI/ADR-RES = test system: NCI/ADR-RES
OVCAR-3 = test system: OVCAR-3
SK-MEL-2 = test system: SK-MEL-2
OVCAR-5 = test system: OVCAR-5
SF-539 = test system: SF-539
CCRF-CEM = test system: CCRF-CEM
Hs-578T = test system: Hs-578T
TK-10 = test system: TK-10
MDA-MB-435 = test system: MDA-MB-435
OVCAR-8 = test system: OVCAR-8
LOX IMVI = test system: LOX IMVI
HT-29 = test system: HT-29
HCT-116 = test system: HCT-116
SF-268 = test system: SF-268
K562 = test system: K562
SN12C = test system: SN12C
HOP-92 = test system: HOP-92
OVCAR-4 = test system: OVCAR-4
U-251 = test system: U-251
UO-31 = test system: UO-31
M14 = test system: M14
SK-MEL-28 = test system: SK-MEL-28
MDA-MB-231 = test system: MDA-MB-231
SF-295 = test system: SF-295
SK-MEL-5 = test system: SK-MEL-5
T47D = test system: T47D
NCI-H23 = test system: NCI-H23
COLO 205 = test system: COLO 205
SK-OV-3 = test system: SK-OV-3
A549 = test system: A549
ACHN = test system: ACHN
HCC 2998 = test system: HCC 2998
MDA-N = test system: MDA-N
DU-145 = test system: DU-145
RXF 393 = test system: RXF 393
BT-549 = test system: BT-549
HCT-15 = test system: HCT-15
UACC-257 = test system: UACC-257
Malme-3M = test system: Malme-3M
786-0 = test system: 786-0
CAKI-1 = test system: CAKI-1
NCI-H226 = test system: NCI-H226
NCI-H522 = test system: NCI-H522
PC-3 = test system: PC-3
KM12 = test system: KM12
SR = test system: SR
HL-60 = test system: HL-60
UACC-62 = test system: UACC-62
NCI-H460 = test system: NCI-H460
SNB-75 = test system: SNB-75
MCF7 = test system: MCF7
MOLT-4 = test system: MOLT-4
SW-620 = test system: SW-620
EKVX = test system: EKVX
SNB-19 = test system: SNB-19
A498 = test system: A498
HOP-62 = test system: HOP-62

Measured: GI50

C#C[C@]1(O)[C@@H](CO)O[C@@H](n2ccc(N)nc2=O)[C@@H]1O
active: IGROV-1 0.028 µM | RPMI-8226 < 0.01 µM | NCI/ADR-RES < 0.0317 µM | OVCAR-3 0.132 µM | SK-MEL-2 0.0435 µM | OVCAR-5 0.209 µM | SF-539 0.111 µM | CCRF-CEM < 0.0109 µM | Hs-578T 0.108 µM | TK-10 0.0224 µM | MDA-MB-435 < 0.01 µM | OVCAR-8 < 0.0121 µM | LOX IMVI < 0.01 µM | HT-29 < 0.0149 µM | HCT-116 < 0.0435 µM | SF-268 0.019 µM | K562 < 0.01 µM | SN12C < 0.01 µM | HOP-92 0.11 µM | OVCAR-4 0.18 µM | U-251 0.0263 µM | UO-31 0.0119 µM | M14 0.107 µM | SK-MEL-28 0.0728 µM | MDA-MB-231 0.0908 µM | SF-295 < 0.0334 µM | SK-MEL-5 0.0139 µM | T47D < 0.015 µM | NCI-H23 0.0902 µM | COLO 205 < 0.0111 µM | SK-OV-3 0.0791 µM | A549 < 0.01 µM | ACHN < 0.01 µM | HCC 2998 < 0.0135 µM | MDA-N 0.0121 µM | DU-145 < 0.01 µM | RXF 393 0.0581 µM | BT-549 0.0834 µM | UACC-257 0.111 µM | Malme-3M 0.0337 µM | 786-0 < 0.0325 µM | CAKI-1 < 0.01 µM | NCI-H226 0.0308 µM | NCI-H522 < 0.01 µM | PC-3 0.0352 µM | KM12 < 0.0127 µM | SR < 0.01 µM | HL-60 < 0.0147 µM | UACC-62 0.0352 µM | NCI-H460 < 0.01 µM | SNB-75 0.0327 µM | MCF7 < 0.01 µM | MOLT-4 0.0101 µM | SW-620 < 0.01 µM | EKVX 0.173 µM | SNB-19 0.0706 µM
< 0.01 µM: HCT-15

Cc1ccc([N+](=O)[O-])cc1S(=O)(=O)Nc1ccc(C2=NN(C(=O)c3ccccc3)C(c3ccccc3)C2)cc1 (stereo not drawn)
19.5 µM: HCT-15
inactive: IGROV-1 17 µM | RPMI-8226 25.5 µM | NCI/ADR-RES 30.4 µM | OVCAR-3 11.9 µM | SK-MEL-2 14.4 µM | OVCAR-5 41.3 µM | SF-539 16.6 µM | CCRF-CEM 24.9 µM | Hs-578T 22.1 µM | TK-10 18 µM | MDA-MB-435 21.2 µM | OVCAR-8 18.9 µM | LOX IMVI 30.5 µM | HT-29 24.9 µM | HCT-116 18.1 µM | SF-268 18.5 µM | K562 18 µM | SN12C 21.8 µM | HOP-92 14.5 µM | OVCAR-4 18.2 µM | U-251 16.6 µM | UO-31 22.4 µM | M14 24.4 µM | SK-MEL-28 41.6 µM | MDA-MB-231 15.5 µM | SF-295 16.9 µM | SK-MEL-5 12.9 µM | T47D 10.6 µM | NCI-H23 21.4 µM | A498 10.9 µM | COLO 205 16.9 µM | SK-OV-3 16 µM | A549 18.7 µM | ACHN 19 µM | MDA-N 21.2 µM | DU-145 34 µM | RXF 393 12.1 µM | BT-549 22.6 µM | UACC-257 20.6 µM | Malme-3M 18.2 µM | 786-0 17.4 µM | CAKI-1 20 µM | NCI-H226 15.5 µM | NCI-H522 11.5 µM | PC-3 19.8 µM | HOP-62 15.9 µM | KM12 26.2 µM | SR 26.4 µM | HL-60 21.5 µM | SNB-75 16.9 µM | MCF7 17.1 µM | MOLT-4 15.5 µM | SW-620 40.7 µM | EKVX 16.3 µM | SNB-19 29.1 µM
